The target of one data set is T1, TEM-1 (Escherichia coli, UniProt P62593).
T1 construct: made in house; host or cells: E. coli
Briefly: Fluorogenic β-lactamase inhibition assay (FC-5 substrate), TEM-1. Format: biochemical. The procedure:
Kinetic and inhibition analyses, and ^19F NMR studies[10] against bacterial β-lactamases were performed as described. The FC-5 cephalosporin[9] was used as substrate for BcII, VIM-2, IMP-1, NDM-1, SPM-1, TEM-1 and OXA-10, meropenem[28] for CphA and nitrocefin[34] for PBP 3 and PBP 5.
In brief IC50 values were determined by preincubation of the appropriate amount of enzyme with the cyclic boronates in the assay buffers for 10 min at room temperature prior to the initiation of the assay by the addition of the appropriate substrate. The enzyme concentrations used are the following: 1 nM BcII, 100 nM VIM-2, 10 nM IMP-1, 10 nM NDM-1, 1 nM SPM-1, 1 nM TEM-1, 1 nM OXA-10, 2.5 nM CphA, 4 μM PBP 3 and 5 μM PBP 5; note that the final concentrations are stated. The assay buffers used are the following: 50 mM HEPES, pH 7.2 supplemented with 1 μg BSA, 1 μg ZnSO4 and 0.01% Triton for BcII, VIM-2, IMP-1, NDM-1 and SPM-1, 15 mM MES, pH 6.5 for CphA, 50 mM HEPES, pH 7.2 supplemented with 200 mM NaCl and 0.01% Triton 100 for TEM-1, 100 mM sodium phosphate, pH 7.2 supplemented with 50 mM NaHCO3 and 0.01% Triton 100 for OXA-10 and 50 mM HEPES, pH 7.2 supplemented with 200 mM NaCl and 0.01% Triton 100 for PBP 3 and PBP 5. The amount of substrates used is the following: 5 μM for BcII, VIM-2, IMP-1, NDM-1 and SPM-1, 10 μM for TEM-1 and OXA-10, 125 μM for CphA and 25 μM for PBP 3 and PBP 5; note that the final concentrations are stated.
The experiments were performed using a PHERAstar FS microplate reader (BMG Labtech) at room temperature (24–25 °C). All enzymes and inhibitors were prepared in the specific assay buffer. The kinetic values in this study are the means from at least three independent measurements; at least nine different concentrations of the inhibitor were used to determine the kinetic parameters (IC50). The IC50 values were determined using the software package Graph Prism 5.

Data set [1] relates to K. pneumoniae Ecl8 pSU18:NDM-1. Nature of the data set: MIC by broth microdilution and checkerboard. In kind it is cell-based. The conditions noted are these: Klebsiella pneumoniae, read-out: 2 MIC, 2 alone; Ecl8 pSU18:NDM-1 (blaSHV-1; blaNDM-1). An excerpt:
(§1) Bacterial strains: E. coli ATCC 25922 (ref. [35]) and K. pneumoniae NCTC 5055 (ref. [36]) were used as reference strains. K. pneumoniae Ecl8 (ref. [16]) and its ramR knock-out[37] were used as previously described. K. pneumoniae strain IR8 (ref. [40]), and E. coli strains IR10 and IR60 (ref. [17]) were generous gifts of Prof. T.R. Walsh. Plasmid pSU18:NDM-1 contains the complete blaNDM-1 open reading frame, together with its promoter, cloned into plasmid pSU18 (ref. [41]). The recombinant plasmid was made by PCR amplifying the blaNDM-1 gene and surrounding sequences from E. coli IR10 with primers NDM1F 5′- […] -3′ and NDM1R 5′- GGCGATGACAGCATCATC -3′, TA cloning the amplicon into pCR2.1 TOPO (Invitrogen) and subcloning into pSU18 using BamHI and XbaI.
(§2) MIC values were determined by broth microdilution, in triplicate, in cation-adjusted Mueller Hinton broth (Sigma) according to the Clinical Laboratory Standards Institute (CLSI) guidelines. Experiments were carried out in microtitre plates (Corning) containing the medium plus meropenem (Sequoia Research Products, Pangbourne, UK) and/or inhibitor 2 as appropriate. Chloramphenicol (20 μg ml^−1) was included in assays of strains (K. pneumoniae Ecl8 and derivative) that carried pSU18 plasmids or derivatives (pSU18:NDM-1) to ensure maintenance of plasmids throughout. Inhibitor 2 was dissolved in DMSO to 100 mg ml^−1 and diluted in broth. The final concentration of DMSO in the assays was kept constant at 0.01% (experiments using 10 μg ml^−1 inhibitor) or 0.03% (experiments using 25 μg ml^−1 inhibitor). Plates were incubated overnight at 37 °C for 18–24 h and absorbance at 600 nm read using a Polarstar Omega (BMG LabTech) plate reader.

The subject of the next data set is E. coli ATCC 25922. Briefly: MIC by broth microdilution. Format: cell-based. To be noted: data not shown.
Excerpt: as §1, §2
A general note: Dilution methods test growth across graded concentrations, often in twofold steps.

Another data set concerns E. coli IR10. Nature of the data set: MIC by broth microdilution. To be noted: Escherichia coli, IR10, read-out: 2 MIC. In kind it is cell-based.
Excerpt: as §1, §2

Another data set deals with E. coli IR60. Nature of the data set: MIC by broth microdilution. Format: cell-based. The conditions noted are these: Escherichia coli, IR60, read-out: 2 MIC.
Excerpt: as §1, §2

Data set [2] has as its system K pneumoniae Ecl8 ΔramR pSU18:NDM-1. Nature of the data set: MIC by broth microdilution. In kind it is cell-based. The conditions noted are these: Klebsiella pneumoniae, read-out: 2 MIC, 2 alone; Ecl8 ΔramR pSU18:NDM-1 (blaSHV-1; blaNDM-1).
Excerpt: as §1, §2

The subject of data set [3] is K pneumoniae Ecl8 ΔramR pSU18. Briefly: MIC by broth microdilution. In kind it is cell-based. To be noted: Klebsiella pneumoniae, read-out: 2 MIC.
Excerpt: as §1, §2

The subject of the next data set is K. pneumoniae Ecl8 pSU18. Nature of the data set: MIC by broth microdilution. Format: cell-based. To be noted: Klebsiella pneumoniae, ECL8PSU18, read-out: 2 MIC.
Excerpt: as §1, §2

The next data set deals with K. pneumoniae NCTC 5055. Nature of the data set: MIC by broth microdilution. In kind it is cell-based. The conditions noted are these: data not shown.
Excerpt: as §1, §2

For a further data set, the system named is HEK293 cells. Nature of the data set: Cytotoxicity assay (MTS). Format: cell-based. The conditions noted are these: human HEK293 cells, concentrations up to 100 μM, 24 h. The procedure:
HEK293 cells were seeded (2,000 per well) in normal DMEM in 96-well plates.[34] After 24 h, wells were dosed with titrated concentration of compounds in 1% dimethyl sulphoxide (DMSO)—final volume of media about 100 μl. Following a further 24 h incubation period, 20 μl tetrazolium (MTS, CellTiter96Aqueous One Solution (Promega)) was added to the media in each well. The plate was incubated at 37 °C, 5% CO2 for 4 h in the dark before absorbance was read at 490 nm to determine cell proliferation values.

T1 sequence (P62593 24-286 limits assumed): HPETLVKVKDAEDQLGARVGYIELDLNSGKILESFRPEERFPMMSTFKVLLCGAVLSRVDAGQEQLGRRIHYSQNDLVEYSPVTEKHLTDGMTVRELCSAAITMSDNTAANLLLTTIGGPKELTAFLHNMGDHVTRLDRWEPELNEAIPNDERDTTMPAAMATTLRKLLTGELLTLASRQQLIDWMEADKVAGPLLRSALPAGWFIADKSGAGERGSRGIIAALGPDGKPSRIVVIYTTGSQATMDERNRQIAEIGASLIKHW

Regarding `NCc1ccc(C(=O)N[C@H]2Cc3cccc(C(=O)O)c3O[B-]2(O)O)cc1` [compound 2], at TEM-1, the pIC50 (commonly −log10 of the IC50, conventionally taken in molar units) is given as 8.4. Also, at TEM-1 (10 min preincubation), the concentration for half-maximal inhibition (IC50) – broadly, the concentration that gives 50% inhibition – turned out to be 3 nM. The MIC (in data set [1]; with E. coli IR10; in the data set on E. coli IR60; in data set [2]; in [3]; in the data set with K. pneumoniae Ecl8 pSU18) was more than 128 µg/mL each time. For the same compound, the “antibacterial activity of 2 alone (highest concentration without activity)” value in the data set on E. coli ATCC 25922 and with K. pneumoniae NCTC 5055 was more than 128 µg/mL throughout. In addition, the cytotoxicity result with HEK293 cells is “Neither 1 nor 2 showed cytotoxicity”.
